According to patent US20030158254A1, “Engineering absorption of therapeutic compounds via colonic transporters” (XenoPort, Inc., priority 2002, published 2003):

Tests used:
rat PEPT1 = target: T1, rat PEPT1 (Rattus norvegicus, UniProt P51574); test: Electrogenic transport (induced current) in Xenopus oocytes transfected with rat PEPT1; format: cell-based
T1 construct: Rat and human PEPT1 and PEPT2 transporter cDNAs were subcloned into a modified pGEM plasmid; expressed in transfected cells; host or cells: Xenopus laevis oocytes injected with in vitro transcribed RNA
T1 sequence (P51574 1-710): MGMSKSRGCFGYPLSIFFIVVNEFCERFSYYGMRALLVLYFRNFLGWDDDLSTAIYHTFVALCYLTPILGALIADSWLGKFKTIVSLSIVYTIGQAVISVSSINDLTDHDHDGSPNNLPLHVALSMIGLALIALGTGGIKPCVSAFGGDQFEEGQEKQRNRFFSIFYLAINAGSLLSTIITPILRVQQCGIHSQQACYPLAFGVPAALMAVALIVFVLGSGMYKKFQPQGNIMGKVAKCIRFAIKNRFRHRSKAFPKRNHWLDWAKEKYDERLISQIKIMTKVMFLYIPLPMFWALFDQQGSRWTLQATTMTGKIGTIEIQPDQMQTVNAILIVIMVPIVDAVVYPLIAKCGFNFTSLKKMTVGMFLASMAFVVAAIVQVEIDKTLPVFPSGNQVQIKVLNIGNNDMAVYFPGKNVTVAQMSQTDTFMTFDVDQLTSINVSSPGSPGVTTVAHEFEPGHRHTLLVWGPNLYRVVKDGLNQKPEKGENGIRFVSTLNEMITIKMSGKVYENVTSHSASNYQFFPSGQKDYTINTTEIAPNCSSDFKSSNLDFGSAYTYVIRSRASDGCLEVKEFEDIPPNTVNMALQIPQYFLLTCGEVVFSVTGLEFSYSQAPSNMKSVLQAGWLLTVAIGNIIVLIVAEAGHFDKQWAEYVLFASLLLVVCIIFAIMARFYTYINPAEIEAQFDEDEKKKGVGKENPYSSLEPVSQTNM
Description: Rat and human PEPT1 and PEPT2 expressing CHO cell lines were prepared as described in PCT Application WO01/20331. Gabapentin-containing dipeptides were evaluated for interaction with the peptide transporters using a radiolabeled substrate uptake assay in a competitive inhibition format, as described in PCT Application WO01/20331. Transport-induced currents were also measured in Xenopus oocytes transfected with rat and human PEPT1 and PEPT2.
RNA preparation: Rat and human PEPT1 and PEPT2 transporter cDNAs were subcloned into a modified pGEM plasmid that contains 5′ and 3′ untranslated sequences from the Xenopus β-actin gene. These sequences increase RNA stability and protein expression. Plasmid cDNA was linearized and used as template for in vitro transcription (Epicentre Technologies transcription kit, 4:1 methylated:non-methylated guanosine triphosphate(GTP)).
Xenopus oocyte isolation. Xenopus laevis frogs were anesthetized by immersion in Tricaine ([…] in deionized water) for 15 min. […]
Electrophysiology measurements. Transport currents were measured 2-14 days after injection, using a standard two-electrode electrophysiology set-up (Geneclamp 500 amplifier, Digidata 1320/PCLAMP software and ADInstruments hardware and software were used for signal acquisition). […]

[1] = Uptake into plasma of Compound V following oral and intracolonic administration; format: in vivo, rat; conditions: FIG. 4
Description: Rats were obtained commercially and were pre-cannulated in the both the ascending colon and the jugular vein. Animals were conscious at the time of the experiment. All animals were fasted overnight and until 4 hours post-dosing. Prodrugs were administered as a solution (in water or polyethylene glycol 400) directly into the colon via the cannula at a dose equivalent to 25 mg of gabapentin per kg. Blood samples (0.5 mL) were obtained from the jugular cannula at intervals over 8 hours and were quenched immediately by addition of acetonitrile/methanol to prevent further conversion of the prodrug. Blood samples were analyzed as described in the attached sample analysis summary.
FIG. 4 compares uptake into the plasma of Compound V following oral and intracolonic administration. […] The levels from oral and colonic administration cross at about 7 hr.

CC(C)(N)C(=O)NCC1(CC(=O)O)CCCCC1 [Compound V, a-aminoisobutyryl gabapentin]
Vmax relative to reference substrate Gly-Sar (rat PEPT1; 1 mM, oocytes transfected with rat PEPT1): 50%
Vmax relative to Gly-Sar in the presence of PEPT inhibitor Lys(ε-Dansyl)-Leu (rat PEPT1; rat PEPT transfected oocytes, with Lys(ε-Dansyl)-Leu): < 5%
Plasma peak after colonic dosing compared with oral ([1]; intracolonic versus oral): lower peak at a later time
Time at which plasma levels from oral and colonic administration cross ([1]; oral versus intracolonic): about 7 hr
